Entries after “also recorded” stand apart in the source; their conditions may differ. Where a SMILES comes first, the peptide text is derived from it. The star is where a group is joined. Cbz = O=C(OCc1ccccc1)*; CH2F = FC*
What was measured:
[1] = test system: bovine cartilage explants; test: Apoptosis (TUNEL) in mechanically injured bovine cartilage explants; assay type: cell-based; conditions: for Mean (±SD) apoptosis rates, Loaded + Agent: bovine femoral condyle cartilage, loaded at 23 MPa, in vitro, n = 8 to 10
Source text: Cartilage explants. Macroscopically normal weight bearing portions of freshly slaughtered skeletally mature bovine femoral condyles were selected from animals between 2 and 6 years of age (Animal Technologies, Austin, Tex.). Only joints without visible signs of degeneration or aging were selected. Using sterile techniques, full thickness cartilage was separated from underlying subchondral bone with a scalpel and 5 mm diameter cylindrical explants, ranging from 1 to 1.8 mm in height, cored out using a dermal punch (Acuderm, Inc., Ft. Lauderdale, Fla.). Explants taken from adjacent sites were used as matched controls for each group in each experiment to minimize variation in cartilage response due to differences in thickness and location within the joint. Each explant was weighed and allowed to stabilize at 37° C. and 5% CO2 for 48 hours in 1 ml of Dulbecco's modified Eagle's medium (DMEM) supplemented with 10% fetal bovine serum (FBS), L-glutamine, antibiotics and 50 μg/ml ascorbic acid.
Full thickness bovine cartilage explants, 5 mm in diameter, were subjected to a single static mechanical load of 7, 14 or 23 MPa for 500 msec. This model simulates traumatic cartilage injury and the loads were similar in magnitude to those generated during traumatic joint injury. Glycosaminoglycan (GAG) release and percent apoptotic cells were measured. The effect of a pan-caspase inhibitor, z-VAD.fmk [benzyloxycarbonyl-Val-Ala-Asp (OMe) fluoromethylketone] in preventing chondrocyte apoptosis was determined. z-VAD.fmk is a fluoromethylketone irreversible inhibitor of a broad spectrum of caspases. […] The percentage of apoptotic chondrocytes was related to load intensity and correlated with the level of GAG release from cartilage. […] This identifies a new approach to limit traumatic cartilage injury and the subsequent development of secondary osteoarthritis.
Loading apparatus and procedure. A model to simulate acute joint injury was used in this study based on injury models reported by Repo and Finlay, and Jeffrey et al. (Repo, et al. (1977) J. Bone Joint Surg. Am. 59A, 1068-1076, Jeffrey, et al. (1995) Arch. Biochem. Biophys. 322, 87-96). Although these reported models impacted cartilage using drop towers, a more controlled method was chosen for applying and maintaining stress or strain as follows. An Instron 8511 servohydraulic testing machine (Instron Corporation, Boston, Mass.) was used to mechanically load the cartilage explants. Explants were transported from the incubator to the Instron machine in sealed cell culture dishes. The explant was centralized on a stainless steel loading platform and a radially unconfined compressive load was applied through an impermeable stainless steel platen. A small preload (0.1 MPa) was applied for 2 minutes, followed by a single 500 msec trapezoidal loading waveform at the selected stress. The stress rose from 0.1 MPa to the chosen stress level in 100 msec and was maintained for 500 msec. Three stress levels were chosen to represent acute joint injury. 7 MPa has been reported to be the upper limit of physiologic stress developed during activities of daily living (von Eisenhart, et al. (1999) J. Orthop. Res. 17, 532-539). 23 MPa is the stress above which the underlying bone has been reported to fracture (Haut (1989) J. Orthop. Res. 7, 272-280). Control explants were placed in the loading apparatus but not loaded. […] Stress and strain data were recorded during the test. […]

human cartilage explants = test: Apoptosis (TUNEL) in mechanically injured human cartilage explants; assay type: cell-based; conditions: for Mean (±SD) apoptosis rates, Loaded + Agent: human cartilage (femoral condyles and tibial plateaus), in vitro, n = 8 to 10
Source text: Cartilage explants. Macroscopically normal tibial and femoral articular surfaces were selected from human cadaver donors between 18 and 45 years of age. Using sterile techniques, full thickness cartilage was separated from underlying subchondral bone with a scalpel. 5 mm diameter cylindrical explants, ranging from 2 to 2.8 mm in thickness, cored out using a dermal punch (Acuderm, Inc., Ft. Lauderdale, Fla.). Explants taken from adjacent sites were used as matched controls for each group in each experiment to minimize variation in cartilage response due to differences in thickness and location within the joint. Each explant was weighed and allowed to stabilize at 37° C. and 5% CO2 for 48 hours in Dulbecco's modified Eagle's medium (DMEM) supplemented with 5% fetal bovine serum (FBS), L-glutamine, antibiotics and […] ascorbic acid.
Loading apparatus and procedure. An Instron 8511 servohydraulic testing machine (Instron Corporation, Boston, Mass.) was used to mechanically load the cartilage explants. Explants were transported from the incubator to the Instron machine in sealed cell culture dishes. The total time duration of loading for a single experiment varied from approximately 1 to 2 hours depending on the number of samples. During this time, explants were maintained at 37° C. The explant was centralized on a stainless steel loading platform and a radially unconfined compressive load was applied through an impermeable stainless steel platen. […] Stress and strain data were recorded during the test.
Caspase inhibition. […] Percentage apoptosis was measured at 96 hours post-injury in three groups (control, loaded, and loaded with z-VAD.fmk) with ten explants each in two separate experiments.
Apoptosis detection. […] This was detected by immunohistochemical staining with M30 (Cytodeath, Boehringer Mannheim, Eugene, Oreg.), a monoclonal antibody that recognizes the neo-epitope exposed in early apoptosis.
Chondrocyte apoptosis after mechanical injury to human cartilage. […] GAG release and percentage of cells undergoing apoptosis were measured at 96 hours after injury. […]

[2] = test system: bovine cartilage explants; test: Glycosaminoglycan release assay (DMMB) in injured bovine cartilage explants; assay type: cell-based; conditions: bovine explants after mechanical injury, z-VAD.fmk 100 μM, 48 hours
Protocol: Glycosaminoglycan release assay. To estimate GAG depletion and release, the concentration of sulfated glycosaminoglycans was measured using […] (DMMB) as a monitor of spectrophotometric changes which occur during the formation of the sulfated GAG dye complex (Farndale, et al. (1986) Biochim. Biophys. Acts. 883, 173-177, Goldberg, et al. (1993) Agents Actions 39 Spec No, C163-C165). For GAG content measurement, samples were digested in papain and collagenase and the concentration of sulfated GAG measured using DMMB. To generate a standard curve, chondroitin-6-sulfate (Sigma, St. Louis, Mo.) was used at concentrations between 1 and 200 μg/ml. GAG released in media was normalized to the pooled mean GAG content of Control (uninjured) cartilage explants and expressed as a percentage of total GAG content.
Inhibition of apoptosis. To determine whether apoptosis could be prevented by caspase inhibition, 12 explants were loaded at 23 MPa (High Load) and cultured for 48 hours. […] Percent apoptosis and GAG release in media was measured as described above.
Release of sulfated glycosaminoglycans (GAG) was analyzed as a measure of the extent of damage sustained by the explant. […] GAG depletion was assessed by dimethylene blue binding assays of the culture supernatants and this correlated with the reduced of safranin O staining of the cartilage sections.

[3] = test system: femoral and tibial articular cartilage; test: Intraarticular injection of caspase inhibitor in rabbits with anterior cruciate ligament transection (ACLT); assay type: in vivo, New Zealand White rabbits; conditions: rabbit bilateral ACLT, 25 μg intra-articular three times per week for six weeks
Protocol: Intraarticular injection of caspase inhibitor in rabbits with ligament transection. A pilot study was performed to assess feasibility and efficacy of caspase inhibition in vivo. Eight New Zealand White rabbits were divided into anterior cruciate ligament transection (ACLT) and ACLT+ caspase inhibitor (CI) groups. Both groups underwent bilateral ACLT. The ACLT+CI group was treated with intra-articular injections of 25 μg of z-VAD.fmk three times per week for six weeks while the control group received saline injections. Rabbits were euthanised at six weeks and femoral and tibial articular cartilage evaluated by India ink staining and histologic Mankin grading after Safranin-O stain.
Histologically, more knees from the ACLT group had higher Mankin scores. 87% (⅞) ACLT knees had grades 5 or higher, while 50% ( 4/8) ACLT+CI knees were graded 5 or higher. The India ink stained femoral condyles were photographed and digital images were used to quantify the surface areas of the lesions.

Compound	Mean (±SD) apoptosis rates, Loaded + Agent [1]	Mean (±SD) apoptosis rates, Loaded + Agent (human cartilage explants; loaded at 30% strain)	GAG release / GAG depletion [2]	GAG release / GAG depletion ([2]; listed as pan-caspase inhibitor)	chondrocyte apoptosis after mechanical injury (result in words) ([1]; bovine explants, z-VAD.fmk 100 μM, 23 MPa, 48 hours)	reduction in the apoptosis rate ([1]; high and intermediate load groups, bovine explants) [%]	reduction of the size of the cartilage lesions (surface area, India ink stained femoral condyles) [3] [%]	knees with histologic Mankin grades 5 or higher ([3]; 4/8 knees, ACLT saline group 87%) [%]	cartilage lesions under India ink examination (area, grade) ([3]; ACLT group grade III to IVa, listed as caspase inhibitor)	Mean (±SD) apoptosis rates, Loaded + Agent (human cartilage explants; loaded at 23 MPa)	mean reduction in apoptotic rates (human cartilage explants; human explants cultured in z-VAD.fmk immediately after injury, 30% strain, 96 hours post-injury) [%]
IGF-1: agent IGF-1 tested for pharmacologic modulation of apoptosis after cartilage injury in vitro	42 (±10.9) %	10 (±6.2) %									
C[C@@H]1C[C@H]2[C@@H]3CCC4=CC(=O)C=C[C@]4(C)[C@@]3(F)[C@@H](O)C[C@]2(C)[C@@]1(O)C(=O)CO [Dexameth.]	47 (±11.2) %										
COC(=O)CC(NC(=O)C(C)NC(=O)C(NC(=O)OCc1ccccc1)C(C)C)C(=O)CF (stereo not drawn) [z-VAD.fmk, benzyloxycarbonyl-Val-Ala-Asp (OMe) fluoromethylketone] (Cbz-Val-Ala-Asp(OMe)-CH2F; configuration not given here)	31 (±13.9) %		normalization of the GAG depletion	reduction in GAG release	reduced chondrocyte apoptosis	> 50	~80	50	lesions that were smaller in area; also recorded: ranged from II (minimum fibrillation)	34 (±10.2) %	50

From patent publication US20100323968A1, “Process of inhibiting cell death in injured cartilage” (The Scripps Research Institute, priority 2001, published 2010)
